As usually defined, the EC50 is the concentration needed to bring the measured effect to its halfway point. A low value points to an effect from little substance.

Each structure is given as a SMILES string.

This assay deals with T1, LCAT (Homo sapiens, UniProt P04180).
T1 construct: The obtained fraction was dialyzed against phosphate-buffered saline (pH 7.4) and used as an enzyme source and an acceptor for LCAT; from tissue; host or cells: HDL3 fraction (1.125<specific gravity<1.210 g/mL) of plasma from a healthy person
T1 sequence (P04180 25-440): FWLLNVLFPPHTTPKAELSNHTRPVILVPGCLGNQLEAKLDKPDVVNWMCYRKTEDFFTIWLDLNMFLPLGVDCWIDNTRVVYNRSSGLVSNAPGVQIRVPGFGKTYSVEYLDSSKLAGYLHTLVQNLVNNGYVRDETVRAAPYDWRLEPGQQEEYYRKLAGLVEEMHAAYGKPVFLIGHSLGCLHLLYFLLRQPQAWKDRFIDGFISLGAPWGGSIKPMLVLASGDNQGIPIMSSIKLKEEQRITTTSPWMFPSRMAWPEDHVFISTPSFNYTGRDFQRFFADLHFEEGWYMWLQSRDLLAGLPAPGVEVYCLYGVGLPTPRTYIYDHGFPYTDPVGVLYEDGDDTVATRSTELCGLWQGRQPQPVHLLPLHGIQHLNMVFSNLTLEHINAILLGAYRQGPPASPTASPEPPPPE
Put plainly: LCAT Activity Measurement (In Vitro). Type of assay: biochemical. The settings on record: EC50 of LCAT activation; HDL3 fraction from plasma of a healthy person as enzyme source and acceptor; [14C]cholesterol; 37° C., approximately 16 hours. The method in brief: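 Human plasma HDL3 (1 mg/mL, PBS pH 7.4) served as enzyme and acceptor with [14C]cholesterol, 0.5 mM DTNB, 12.5 mM mercaptoethanol and 0.6% BSA; compounds in DMSO, incubated ~16 h at 37 °C. Cholesterol oleate radioactivity quantified after extraction and TLC; EC50 of activation fitted relative to no-drug control.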
Take `CN(C)C(=O)c1cc(N2CCC(c3n[nH]c4c3C(O)(C(F)(F)F)CC(=O)N4)CC2)ccc1C(F)(F)F` (stereo not drawn) [Example 69, 5-{4-[4-Hydroxy-6-oxo-4-(trifluoromethyl)-4,5,6,7-tetrahydro-1H-pyrazolo[3,4-b]pyridin-3-yl]piperidin-1-yl}-N,N-dimethyl-2-(trifluoromethyl)benzamide]: the EC50 stood at 190 nM. With `O=C1CC(O)(C(F)(F)F)c2c(C3CCN(c4ccc(F)cc4)CC3)n[nH]c2N1` (stereo not drawn) [Example 70, 3-[1-(4-Fluorophenyl)piperidin-4-yl]-4-hydroxy-4-(trifluoromethyl)-1,4,5,7-tetrahydro-6H-pyrazolo[3,4-b]pyridin-6-one] the figure was 300 nM; with `O=C1CC(O)(C(F)(F)F)c2c(C3CCN(c4nc(C5CC5)no4)CC3)n[nH]c2N1` (stereo not drawn) [Example 71, 3-[1-(3-Cyclopropyl-1,2,4-oxadiazol-5-yl)piperidin-4-yl]-4-hydroxy-4-(trifluoromethyl)-1,4,5,7-tetrahydro-6H-pyrazolo[3,4-b]pyridin-6-one], 520 nM. With `CC(C)(C)c1ncc(N2CCC(c3n[nH]c4c3C(O)(C(F)(F)F)CC(=O)N4)CC2)cn1` (stereo not drawn) [Example 72, 3-[1-(2-tert-Butylpyrimidin-5-yl)piperidin-4-yl]-4-hydroxy-4-(trifluoromethyl)-1,4,5,7-tetrahydro-6H-pyrazolo[3,4-b]pyridin-6-one] the figure was 23 nM; with `CCc1ccc(N2CCC(c3n[nH]c4c3C(O)(C(F)(F)F)CC(=O)N4)CC2)nc1` (stereo not drawn) [Example 73, 3-[1-(5-Ethylpyridin-2-yl)piperidin-4-yl]-4-hydroxy-4-(trifluoromethyl)-1,4,5,7-tetrahydro-6H-pyrazolo[3,4-b]pyridin-6-one], 83 nM.

Turning to `O=C1CC(O)(C(F)(F)F)c2c(C3CCN(c4ccc(Br)cn4)CC3)n[nH]c2N1` (stereo not drawn) [Example 74, 3-[1-(5-Bromopyridin-2-yl)piperidin-4-yl]-4-hydroxy-4-(trifluoromethyl)-1,4,5,7-tetrahydro-6H-pyrazolo[3,4-b]pyridin-6-one], the response was half-maximal at 140 nM (EC50). Compared with the last compound, the EC50 is about 1.7-fold higher. Compound `CC(C)c1cc(N2CCC(c3n[nH]c4c3C(O)(C(F)(F)F)CC(=O)N4)CC2)nc(C(C)C)n1` (stereo not drawn) [Example 75, 3-{1-[2,6-di(Propan-2-yl)pyrimidin-4-yl]piperidin-4-yl}-4-hydroxy-4-(trifluoromethyl)-1,4,5,7-tetrahydro-6H-pyrazolo[3,4-b]pyridin-6-one] registered an EC50 of 220 nM.

In the case of `O=C1CC(O)(C(F)(F)F)c2c(C3CCN(c4ccc(OC(F)(F)F)cn4)CC3)n[nH]c2N1` (stereo not drawn) [Example 76, 4-Hydroxy-3-{1-[5-(trifluoromethoxy)pyridin-2-yl]piperidin-4-yl}-4-(trifluoromethyl)-1,4,5,7-tetrahydro-6H-pyrazolo[3,4-b]pyridin-6-one], the concentration giving a half-maximal response (EC50) turned out to be 18 nM.

Consider `COC(=O)c1nc(N2CCC(c3n[nH]c4c3C(O)(C(F)(F)F)CC(=O)N4)CC2)ccc1C(F)(F)F` (stereo not drawn) [Example 77, Methyl 6-{4-[4-hydroxy-6-oxo-4-(trifluoromethyl)-4,5,6,7-tetrahydro-1H-pyrazolo[3,4-b]pyridin-3-yl]piperidin-1-yl}-3-(trifluoromethyl)pyridine-2-carboxylate], for which a half-maximal effect (EC50) was put at 58 nM.

Turning to `N#Cc1cnc(N2CCC(c3n[nH]c4c3C(O)(C(F)(F)F)CC(=O)N4)CC2)cn1` (stereo not drawn) [Example 78, 5-{4-[4-Hydroxy-6-oxo-4-(trifluoromethyl)-4,5,6,7-tetrahydro-1H-pyrazolo[3,4-b]pyridin-3-yl]piperidin-1-yl}pyrazine-2-carbonitrile], the half-maximal effective concentration (EC50) amounted to 220 nM. With `O=C1CC(O)(C(F)(F)F)c2c(C3CCN(c4ccnc(C(F)(F)F)n4)CC3)n[nH]c2N1` (stereo not drawn) [Example 79, 4-Hydroxy-4-(trifluoromethyl)-3-{1-[2-(trifluoromethyl)pyrimidin-4-yl]piperidin-4-yl}-1,4,5,7-tetrahydro-6H-pyrazolo[3,4-b]pyridin-6-one], the EC50 was 300 nM. Consider `O=C1CC(O)(C(F)(F)F)c2c(C3CCN(c4nccc(C(F)(F)F)n4)CC3)n[nH]c2N1` (stereo not drawn) [Example 80, 4-Hydroxy-4-(trifluoromethyl)-3-{1-[4-(trifluoromethyl)pyrimidin-2-yl]piperidin-4-yl}-1,4,5,7-tetrahydro-6H-pyrazolo[3,4-b]pyridin-6-one], for which the EC50 is 380 nM.

The compound `N#Cc1cnc(N2CCC(c3n[nH]c4c3C(O)(C(F)(F)F)CC(=O)N4)CC2)s1` (stereo not drawn) [Example 81, 2-{4-[4-Hydroxy-6-oxo-4-(trifluoromethyl)-4,5,6,7-tetrahydro-1H-pyrazolo[3,4-b]pyridin-3-yl]piperidin-1-yl}-1,3-thiazole-5-carbonitrile] gave an EC50 of 470 nM.

Compound `COC(=O)c1cc(N2CCC(c3n[nH]c4c3C(O)(C(F)(F)F)CC(=O)N4)CC2)ncc1C(F)(F)F` (stereo not drawn) [Example 82, Methyl 2-{4-[4-hydroxy-6-oxo-4-(trifluoromethyl)-4,5,6,7-tetrahydro-1H-pyrazolo[3,4-b]pyridin-3-yl]piperidin-1-yl}-5-(trifluoromethyl)pyridine-4-carboxylate] gave an EC50 of 32 nM. Compared with the last compound, the EC50 is about 15-fold lower. With `CN(C)C(=O)c1nc(N2CCC(c3n[nH]c4c3C(O)(C(F)(F)F)CC(=O)N4)CC2)ccc1C(F)(F)F` (stereo not drawn) [Example 83, 6-{4-[4-Hydroxy-6-oxo-4-(trifluoromethyl)-4,5,6,7-tetrahydro-1H-pyrazolo[3,4-b]pyridin-3-yl]piperidin-1-yl}-N,N-dimethyl-3-(trifluoromethyl)pyridine-2-carboxamide] the figure was 420 nM; with `CN(C)C(=O)c1cc(N2CCC(c3n[nH]c4c3C(O)(C(F)(F)F)CC(=O)N4)CC2)ncc1C(F)(F)F` (stereo not drawn) [Example 84, 2-{4-[4-Hydroxy-6-oxo-4-(trifluoromethyl)-4,5,6,7-tetrahydro-1H-pyrazolo[3,4-b]pyridin-3-yl]piperidin-1-yl}-N,N-dimethyl-5-(trifluoromethyl)pyridine-4-carboxamide], 270 nM; with `O=C1CC(O)(C(F)(F)F)c2c(C3CCN(c4cc(C(=O)OCc5ccccc5)c(C(F)(F)F)cn4)CC3)n[nH]c2N1` (stereo not drawn) [Example 85, Benzyl 2-[4-(4-hydroxy-6-oxo-4-(trifluoromethyl)-4,5,6,7-tetrahydro-1H-pyrazolo[3,4-b]pyridin-3-yl)piperidin-1-yl]-5-(trifluoromethyl)pyridine-4-carboxylate], 13 nM. With `CN(C)c1cc(N2CCC(c3n[nH]c4c3C(O)(C(F)(F)F)CC(=O)N4)CC2)nc(C(F)(F)F)n1` (stereo not drawn) [Example 86, 3-{1-[6-(Dimethylamino)-2-(trifluoromethyl)pyrimidin-4-yl]piperidin-4-yl}-4-hydroxy-4-(trifluoromethyl)-1,4,5,7-tetrahydro-6H-pyrazolo[3,4-b]pyridin-6-one] the figure was 140 nM; with `Cc1nc(N2CCC(c3n[nH]c4c3C(O)(C(F)(F)F)CC(=O)N4)CC2)cc(C(F)(F)F)n1` (stereo not drawn) [Example 87, 4-Hydroxy-3-{1-[2-methyl-6-(trifluoromethyl)pyrimidin-4-yl]piperidin-4-yl}-4-(trifluoromethyl)-1,4,5,7-tetrahydro-6H-pyrazolo[3,4-b]pyridin-6-one], 300 nM; with `CC(C)c1nc(N2CCC(c3n[nH]c4c3C(O)(C(F)(F)F)CC(=O)N4)CC2)cc(C(F)(F)F)n1` (stereo not drawn) [Example 88, 4-Hydroxy-3-{1-[2-(propan-2-yl)-6-(trifluoromethyl)pyrimidin-4-yl]piperidin-4-yl}-4-(trifluoromethyl)-1,4,5,7-tetrahydro-6H-pyrazolo[3,4-b]pyridin-6-one], 88 nM.

In the case of `O=C1CC(O)(C(F)(F)F)c2c(C3CCN(c4ncc(-c5ccccc5)s4)CC3)n[nH]c2N1` (stereo not drawn) [Example 89, 4-Hydroxy-3-[1-(5-phenyl-1,3-thiazol-2-yl)piperidin-4-yl]-4-(trifluoromethyl)-1,4,5,7-tetrahydro-6H-pyrazolo[3,4-b]pyridin-6-one], the EC50 amounted to 110 nM. In turn, `O=C1CC(O)(C(F)(F)F)c2c(C3CCN(c4nc(-c5ccccc5)cs4)CC3)n[nH]c2N1` (stereo not drawn) [Example 90, 4-Hydroxy-3-[1-(4-phenyl-1,3-thiazol-2-yl)piperidin-4-yl]-4-(trifluoromethyl)-1,4,5,7-tetrahydro-6H-pyrazolo[3,4-b]pyridin-6-one] displayed a concentration for a half-maximal effect (EC50) of 310 nM. This EC50 is about 2.8-fold higher than that of the compound before. The figure for `CCOC(=O)c1oc(N2CCC(c3n[nH]c4c3C(O)(C(F)(F)F)CC(=O)N4)CC2)nc1C(F)(F)F` (stereo not drawn) [Example 91, Ethyl 2-{4-[4-hydroxy-6-oxo-4-(trifluoromethyl)-4,5,6,7-tetrahydro-1H-pyrazolo[3,4-b]pyridin-3-yl]piperidin-1-yl}-4-(trifluoromethyl)-1,3-oxazole-5-carboxylate] is 77 nM; for `O=C1CC(O)(C(F)(F)F)c2c(C3CCN(c4cc(C(F)(F)F)nc(C5CC5)n4)CC3)n[nH]c2N1` (stereo not drawn) [Example 92, 3-{1-[2-Cyclopropyl-6-(trifluoromethyl)pyrimidin-4-yl]piperidin-4-yl}-4-hydroxy-4-(trifluoromethyl)-1,4,5,7-tetrahydro-6H-pyrazolo[3,4-b]pyridin-6-one] it is 210 nM.
